Values quoted from earlier work, collected in patent publication US20110257198A1, “PIPERIDINE DERIVATIVES USEFUL AS OREXIN ANTAGONISTS” (priority 2008, published 2011).
Ends that are not written are not given here.

Tests used:
[1] = test system: freely-feeding rats; conditions: central administration, 4 hour time period
[2] = test system: rat; conditions: central administration at the onset of the normal sleep period (Hagan et al 1999)
[3] = test system: rats; conditions: rats (White et al 2005)
[4] = test system: rats; conditions: rats (Nair et al 2008)

Compound | increase of food intake over control rats receiving vehicle [1] | effect on arousal [2] | effect on hedonic eating [3] | effect on high-fat pellet self-administration [4]
orexin-A: polypeptide ligand for the orexin-1 receptor; an agonist of the orexin receptors (QPLPDCCRQKTCSCRLYELLHGAGNHAAGILTL; ends and bridges not checked; cysteine pairing not given here; UniProt O43612 34-66, looked up) | approximately four-fold | dose-related increase in arousal |  | 
Cc1nc2ccc(NC(=O)Nc3ccnc4cccnc34)cc2o1 [SB334867] |  |  | potently reduced hedonic eating | attenuated high-fat pellet self-administration
